Earlier results as cited in US20160000088A1, “PROCESS FOR PRODUCING SILVER-ION ANTIBACTERIAL LIQUID, SILVER-ION ANTIBACTERIAL LIQUID PRODUCED BY SAID PROCESS, AND SILVER-ION-CONTAINING PRODUCT CONTAINING SAID ANTIBACTERIAL LIQUID” (TAIKI CORP., LTD., priority 2013, published 2016).

System: Staphylococcus aureus
Details: silver ion concentration of 10 ppb; nutrient broth added (NB culture)

For silver ions, the “decrease of bacterial count” value is given as at least 2 logs.
